Measurements taken from PubChem BioAssay (NCI).
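Interpolation was linear, between the two tested concentrations surrounding the appropriate level; five concentrations were tested over 48 hours in 96-well plates. Here, GI50 denotes the concentration required for 50% inhibition of growth. TGI marks complete inhibition of growth.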

Legend:
Assay in all cases: NCI-60 cell line screen, 48 h
[1] = tested on: IGROV1 ovarian
[2] = tested on: NCI-H226 lung
[3] = tested on: EKVX NSCLC
[4] = tested on: RXF 393 renal
[5] = tested on: OVCAR-5 ovarian
[6] = tested on: SK-OV-3 ovarian
[7] = tested on: CAKI-1 renal
[8] = tested on: SNB-19 CNS
[9] = tested on: UACC-62 melanoma
[10] = tested on: LOX IMVI melanoma

SMILES | GI50 [1] | TGI [1] | GI50 [2] | GI50 [3] | TGI [3] | GI50 [4] | TGI [4] | GI50 [5] | TGI [5] | GI50 [6] | TGI [6] | GI50 [7] | TGI [7] | GI50 [8] | TGI [8] | GI50 [9] | TGI [9] | GI50 [10] | TGI [10] | TGI [2]
COC(=O)N[C@H]1CCc2cc(OC)c(OC)c(OC)c2-c2ccc(SC)c(=O)cc21 | < 0.01 µM | > 100 µM | < 0.01 µM | < 0.01 µM | > 100 µM | < 0.01 µM | > 100 µM | < 0.01 µM | > 100 µM | < 0.01 µM | > 100 µM | < 0.0166 µM | > 100 µM | < 0.01 µM | > 100 µM | < 0.01 µM | > 100 µM | < 0.01 µM | > 100 µM | 
CCN(Cc1ccc(OC)cc1)c1ccc(CO)c(Cl)c1 | 0.114 µM | 1.16 µM | 0.0519 µM | 20.5 µM | > 83.3 µM | 7.35 µM | 28.3 µM | 0.162 µM | 0.636 µM | 6.7 µM | 30.8 µM | 1.14 µM | > 36.3 µM | 26.8 µM | > 100 µM | 0.0986 µM | 0.686 µM | 13.2 µM | 27.4 µM | 0.182 µM
C[C@@H]1C(=O)CC2C(C)(C)CCC[C@]2(C)[C@@]12CC[C@]1(C=COC1)O2 (some centres not stated) |  | > 100 µM |  |  | > 100 µM |  | 56.3 µM |  | > 100 µM |  | 91.7 µM |  | > 100 µM |  | > 100 µM |  | > 100 µM |  | > 100 µM | > 100 µM
CC(=O)/C(=C\c1ccc(Cl)cc1)c1ccccc1 | 0.344 µM | > 100 µM | 2.3 µM | 1.82 µM | > 100 µM | 0.0579 µM |  |  | > 100 µM | 0.0942 µM | > 100 µM | 0.549 µM | > 100 µM | 0.344 µM | > 100 µM | 0.0473 µM | > 93.8 µM | 0.123 µM | 16.2 µM | > 90.1 µM
C/C(=C\C(=O)O[C@H]1[C@@H]2[C@H](C)CC[C@H]2[C@]2(C)O[C@@]1(C1CCCCC1)C[C@H]2OC(=O)CO)c1ccccc1 | 7.58 µM | 14.7 µM | 5.98 µM | 6.46 µM | 12.5 µM | 0.0798 µM | 7.12 µM | 7 µM | 12.9 µM | 7.15 µM | 13.2 µM | 0.0235 µM | 5.01 µM | 7.41 µM | 13.1 µM | 6.62 µM | 12.4 µM | 6.97 µM | 12.9 µM | 12.3 µM
CC1CCCCCC(=O)c2c(O)cc(O)cc2CC(=O)O1 (configuration not stated) |  | > 100 µM |  |  | > 100 µM |  | > 100 µM |  | > 100 µM |  | > 100 µM |  | > 100 µM |  | > 100 µM |  | > 100 µM |  | > 100 µM | > 100 µM
CS(=O)(=O)OCCN(CCOS(C)(=O)=O)c1ccc(C=Nc2ccc(-c3csc(COc4ccccc4)n3)cc2)cc1 |  | 32.8 µM |  |  | 16.5 µM |  | 1.85 µM |  | 12.6 µM |  | 12.2 µM |  | 4.18 µM |  | 32.6 µM |  | 19.8 µM |  | 18.1 µM | 18.2 µM
O=S(=O)(NCCCNc1cc(-c2cn(-c3ccccc3)nc2-c2cccc(O)c2)ccn1)c1ccc(C(F)(F)F)cc1 | 3.24 µM | 9.55 µM | 2.31 µM | 2.45 µM | 10.7 µM | 1.24 µM | 2.84 µM | 1.92 µM | 5.16 µM | 2.39 µM | 5.95 µM | 2.08 µM | 7.81 µM | 2.04 µM | 5.55 µM | 1.53 µM | 3.17 µM | 1.67 µM | 3.12 µM | 6.25 µM
O=c1nc2n(-c3cccc(Cl)c3)c3ccc([N+](=O)[O-])cc3cc-2c(=O)[nH]1 | 17.4 µM | > 25 µM | 5.51 µM | 11.9 µM | > 25 µM | 10.1 µM | > 25 µM | 11.7 µM | > 25 µM | 15 µM | > 25 µM | 5.71 µM | 16 µM | 7.5 µM | > 25 µM | 3.54 µM | 8.38 µM | 1.93 µM | 9.52 µM | 13.6 µM
